Patent US12012410B2, “Substituted pyrazolo[1,5-a]pyrazines for spinal muscular atrophy” (REBORNA BIOSCIENCES, INC., priority 2018, dated 2024)

System: FL-SMN mRNA (SMN transcript containing exons 7 and 8)
Assay: Live-cell assay to measure changes in FL-SMN mRNA levels (qPCR) after exposure to the compounds
Format: cell-based, human
Conditions: fibroblasts derived from patients SMA (GM03813); 24 hours incubation
Procedure: In this example, each test compound was administered to cultured cells, and changes in the expression levels of mRNA transcripts of SMN, i.e., FL-SMN containing exons 7 and 8 and Delta7 with exon 7 skipped, were examined using PCR.
Fibroblasts derived from patients SMA (GM03813) (Coriell Cell Repositories) were cultured with passages using DMEM (High Glucose) (Life Technologies) supplemented with 10% FBS (Life Technologies). Cells were seeded in tissue-culture-treated 96-well plates (Corning) at 1.5 or 0.5×10^4 cells/well in 100 μL of medium. The cells were incubated in 5% CO2 for 6 hours, and the medium was replaced with 100 μL of medium (with DMSO, 0.1% final concentration) containing each of the compounds given in the Examples. After additional incubation for 24 hours under the same conditions, the cells were washed once with D-PBS(—) (Wako) and 25 μL/well of the lysis solution (with gDNA Remove) contained in the SuperPrep (registered trademark) Cell Lysis & RT Kit for qPCR (Toyobo life science) was added according to the manufacturer's instructions so that the cells were lysed and the genomic DNA was degraded. Furthermore, 5 μL of the STOP solution (with RNase Inhibitor) contained in the kit was added to provide RNA-containing solutions. Six microliters of the RNA-containing solutions were each mixed with 14 μL of a reverse transcription solution containing transcriptase together with dNTP, random primers and an oligodT primer. Reverse transcription was performed at 37° C. (15 min), 50° C. (5 min), and 98° C. (5 min), to give total cDNAs. The total cDNAs were diluted 30-fold with Ultra-pure water (Invitrogen) to measure the expression levels of FL-SMN, delta7, and GAPDH. For quantitative PCR (qPCR), a PCR solution was prepared according to the instructions of the manufacturer of the THUNDERBIRD (registered trademark) Probe qPCR Mix (Toyobo life science). Five microliters of the diluted total cDNA solutions and oligo DNA standard solutions, each containing either 001-Standard FL-SMN (SEQ ID NO. 1) or 002-Standard delta7 (SEQ ID NO. 2), were each mixed with 10 μL of each of the PCR solutions containing a qPCR probe, primers, and PCR enzyme. […] The oligoDNA standard solutions were prepared as those containing either of 5×10^8, 5×10^7, 5×10^6, 5×10^5, 5×10^4, 5×10^3, 5×10^2, 5×10, 5, or 0 copies. For the oligo DNA standards, primers, and probes, oligonucleotides synthesized by Integrated DNA Technologies, Inc. (IDT) were used. […] FIGS. 3B and 3D show their detection mechanisms. The final concentrations of the primers and probes added were 0.4 μM and 0.15 μM, respectively. The qPCR was performed using the following conditions on a ViiA7 instrument (Applied Biosystems): first stage: 95° C. (1 min)→second stage: 95° C. (15 sec)→third stage: 60° C. (1 min)→40 repeated cycles of the second and third stages. The GAPDH mRNA was used as the internal control, and the commercially available 20×gene expression PCR assay (Life Technologies, 4326317E, Hs99999905_ml) and Standard GAPDH (SEQ ID NO. 7) (see FIG. 1) was used to determine the number of copies of this gene. The measurement values obtained for the samples to be measured were standardized against the respective value obtained for GAPDH.
Using the above-mentioned assays, the activities of the compounds of the Examples were evaluated. Specifically, the percentages of the FL-SMN and delta7 values obtained using DMSO without the compounds and standardized against GAPDH were set as 100% and those of the FL-SMN and delta7 values obtained at the time of administration of the compounds and standardized against GAPDH were calculated. […]

Structure (SMILES)	Percentage of increase (FL-SMN mRNA standardized against GAPDH, DMSO control set as 100%)
Cc1cn2nc(-c3nc4c(F)cc(C5CCN(C)CC5)cc4c(=O)[nH]3)cc2c(C)n1 [Example 3, 2-(4,6-Dimethylpyrazolo[1,5-α]pyrazin-2-yl)-8-fluoro-6-(1-methylpiperidin-4-yl)quinazolin-4(3H)-one]	**** (equal to or higher than 180%)
CN1CCC(c2ccc3nc(-c4cc5n(n4)CCOC5)[nH]c(=O)c3c2)CC1 [Example 46, 2-(6,7-dihyrdo-4H-pyrazolo[5,1-c][1,4]oxazin-2-yl)-6-(1-methylpiperidin-4-yl)quinazolin-4(3H)-one]	* (equal to or higher than 100% but lower than 120%)
CCN1CCC(F)(c2nc3c(F)cc(-c4ccc5nc(C)cn5c4)cc3c(=O)[nH]2)CC1 [Example 95, 2-(1-ethyl-4-fluoropiperidin-4-yl)-8-fluoro-6-(2-methylimidazo[1,2-a]pyridin-6-yl)quinazolin-4(3H)-one]	*** (equal to or higher than 150% but lower than 180%)
CCN1CCN(c2ccc3nc(-c4cc5c(C)nc(C)cn5n4)[nH]c(=O)c3c2)[C@@H](C)C1 [Example 130, (S)-2-(4,6-dimethylpyrazolo[1,5-a]pyrazin-2-yl)-6-(4-ethyl-2-methylpiperazin-1-yl)quinazolin-4(3H)-one]	*** (equal to or higher than 150% but lower than 180%)
Cc1cn2nc(-c3nc4cc(F)c(C5CCN(C)CC5)cc4c(=O)[nH]3)cc2c(C)n1 [Example 1, 2-(4,6-Dimethylpyrazolo[1,5-a]pyrazin-2-yl)-7-fluoro-6-(1-methylpiperidin-4-yl)quinazolin-4(3H)-one]	**** (equal to or higher than 180%)
Cc1cn2cc(-c3ccc4nc(C5CCN(C)CC5)[nH]c(=O)c4c3)cc(C)c2n1 [Example 23, 6-(2,8-dimethylimidazo[1,2-a]pyridine-6-yl)-2-(1-methylpiperidin-4-yl) kinazoline-4 (3H)—one]	*** (equal to or higher than 150% but lower than 180%)
Cc1nc2ccc(-c3cc(F)c4nc(C5CCN(C)CC5)[nH]c(=O)c4c3)cc2o1 [Example 30, 8-fluoro-6-(2-methyl-1,3-benzoxazol-6-yl)-2-(1-methylpiperidin-4-yl)quinazolin-4(3H)-one]	**** (equal to or higher than 180%)
CCN1CCC(F)(c2nc3ccc(-c4cc(F)c5nc(C)cn5c4)cc3c(=O)[nH]2)CC1 [Example 92, 2-(1-Ethyl-4-fluoropiperidin-4-yl)-6-(8-fluoro-2-methylimidazo[1,2-a]pyridin-6-yl)quinazolin-4(3H)-one]	**** (equal to or higher than 180%)
Cc1cn2nc(-c3nc4ccc(N5CCN6CCC[C@H]6C5)cc4c(=O)[nH]3)cc2c(C)n1 [Example 121, (S)-2-(4,6-dimethylpyrazolo[1,5-a]pyrazin-2-yl)-6-(hexahydropyrrolo[1,2-a]pyrazin-2(1H)-yl)quinazolin-4(3H)-one bistrifluoroacetate]	**** (equal to or higher than 180%)
Cc1cn2cc(-c3ccc4nc(C5(F)CCN(C)CC5)[nH]c(=O)c4c3)ccc2n1 [Example 37, 2-(4-fluoro-1-methylpiperidin-4-yl)-6-(2-methylimidazo[1,2-a]pyridin-6-yl)quinazolin-4(3H)-one]	*** (equal to or higher than 150% but lower than 180%)
Cc1cn2cc(-c3ccc4nc(C5CCN(C)CC5)[nH]c(=O)c4c3)cc2cn1 [Example 15, 2-(1-Methylpiperidin-4-yl)-6-(3-methylpyrrolo[1,2-α]pyrazin-7-yl)quinazolin-4(3H)-one]	**** (equal to or higher than 180%)
Cc1cn2cc(-c3ccc4c(c3)c(=O)nc(C3CCN(C)CC3)n4C)ccc2n1 [Example 70, 1-methyl-6-(2-methylimidazo[1,2-a]pyridin-6-yl)-2-(1-methylpiperidin-4-yl)quinazolin-4(1H)-one]	* (equal to or higher than 100% but lower than 120%)
Cc1cn2cc(-c3ccc4nc(C5CCN(C)CC5)[nH]c(=O)c4c3)cc2c(C)n1 [Example 20, 6-(1,3-Dimethylpyrrolo[1,2-α]pyrazin-7-yl)-2-(1-methylpiperidin-4-yl)quinazolin-4(3H)-one]	**** (equal to or higher than 180%)
CN1CCC(c2nc3ccc(-c4ccc5nc(C(F)(F)F)cn5c4)cc3c(=O)[nH]2)CC1 [Example 66, 2-(1-methylpiperidin-4-yl)-6-[2-(trifluoromethyl)imidazo [1,2-a]pyridin-6-yl]quinazolin-4(3H)-one]	* (equal to or higher than 100% but lower than 120%)
Cc1cn2cc(-c3nc4ccc(N5CCN(C)CC5)cc4c(=O)[nH]3)cc(F)c2n1 [Example 53, 2-(8-fluoro-2-methylimidazo[1,2-a]pyridin-6-yl)-6-(4-methylpiperazin-1-yl)quinazolin-4(3H)-one]	** (equal to or higher than 120% but lower than 150%)
COc1ccnc(-c2nc3ccc(C4CCN(C)CC4)cc3c(=O)[nH]2)c1 [Example 48, 2-(4-Methoxypyridin-2-yl)-6-(1-methylpiperidin-4-yl)quinazolin-4(3H)-one]	* (equal to or higher than 100% but lower than 120%)
CCN1CCN(c2ccc3nc(-c4cc5c(C)nc(C)cn5n4)[nH]c(=O)c3c2)CC1 [Example 12, 2-(4,6-Dimethylpyrazolo[1,5-a]pyrazin-2-yl)-6-(4-ethylpiperazin-1-yl)quinazolin-4(3H)-one]	**** (equal to or higher than 180%)
Cc1nc2c(F)cc(-c3cc4c(=O)[nH]c(C5(F)CCNCC5)nc4cn3)cc2o1 [Example 111, 6-(4-fluoro-2-methy-1,3-benzoxazol-6-yl)-2-(4-fluoropiperidin-4-yl)pyrido[3,4-d]pyrimidin-4(3H)-one]	**** (equal to or higher than 180%)
Cc1cn2cc(-c3ccc4c(=O)n(C5CCN(C)CC5)cnc4c3)ccc2n1 [Example 26, 7-(2-methylimidazo[1,2-a]pyridine-6-yl)-3-(1-methylpiperidin-4-yl) kinazoline-4 (3H)-one]	**** (equal to or higher than 180%)
Cc1cn2cc(-c3nc4ccc(N5CCN(C)CC5)cc4c(=O)[nH]3)nc2c(C)n1 [Example 50, 2-(6,8-dimethylimidazo[1,2-a]pyrazin-2-yl)-6-(4-methylpiperazin-1-yl)quinazolin-4(3H)-one]	** (equal to or higher than 120% but lower than 150%)
